Measured values reported in the NIST ThermoML archive (doi:10.1021/je100423n).

Tests used:
[1] = molar heat capacity at constant pressure; conditions: 101.33 kPa, Crystal
[2] = Molar enthalpy of transition or fusion; conditions: Crystal; DSC
[3] = Crystal; DTA

Cn1cc[n+](CCCS(=O)(=O)[O-])c1 [3-(1-methyl-1H-imidazolium-3-yl)propane-1-sulfonate]
[1]
Conditions	molar heat capacity at constant pressure [J/K/mol]
79.8 K	86.51
81.82 K	88.12
83.72 K	89.95
85.64 K	89.73
87.56 K	93.2
89.49 K	95.76
91.4 K	97.65
93.32 K	99.15
95.24 K	102.59
97.17 K	103.14
99.12 K	102.97
101.85 K	103.15
104.55 K	104.71
106.45 K	105.28
108.39 K	105.7
110.33 K	111.76
112.29 K	111.65
114.18 K	111.92
116.13 K	115.43
118.1 K	116.28
120.05 K	114.78
121.97 K	115.61
123.88 K	119.92
125.82 K	122.24
127.79 K	123.43
129.74 K	125.12
131.67 K	124.91
133.59 K	127.13
135.53 K	131.14
137.52 K	130.24
139.48 K	129.74
141.43 K	131.92
143.37 K	134.51
145.33 K	134.71
147.34 K	135.23
149.32 K	136.3
151.86 K	137.15
154.34 K	136.69
156.25 K	139.22
158.24 K	141.2
160.2 K	143.21
162.16 K	143.46
164.1 K	142.79
166.03 K	143.55
167.95 K	145.47
169.86 K	147.4
171.84 K	148.97
173.85 K	149.72
175.86 K	149.26
177.86 K	149.24
179.85 K	152.16
181.84 K	150.39
183.8 K	154.14
185.77 K	156.95
187.72 K	158.74
189.66 K	159.79
191.59 K	160.39
193.51 K	162.15
195.43 K	163.86
197.4 K	164.54
199.41 K	165.47
201.87 K	167.03
204.26 K	168.03
206.21 K	169.73
208.23 K	170.72
210.24 K	171.01
212.24 K	172.7
214.24 K	173.59
216.23 K	174.98
218.22 K	175.65
220.2 K	176.48
222.16 K	177.33
224.13 K	178.37
226.09 K	179.05
228.04 K	180.76
229.98 K	181.37
231.89 K	182.01
233.91 K	183.89
235.92 K	184.74
237.85 K	185.76
239.79 K	186.01
242.05 K	187.95
244.34 K	187.83
246.29 K	188.35
248.25 K	190.3
250.19 K	193.13
252.14 K	194.47
254.07 K	195.68
255.99 K	196.3
257.92 K	197.35
259.83 K	198.68
261.74 K	199.57
263.64 K	200.05
265.55 K	201.61
267.43 K	202.34
269.32 K	203.12
271.3 K	205.52
273.27 K	206.92
275.24 K	208.19
277.3 K	209.38
279.36 K	210.92
281.42 K	212.37
283.48 K	214.25
285.52 K	216.3
287.56 K	218.37
289.55 K	220.99
293.53 K	222.83
295.51 K	223.55
297.5 K	224.52
299.48 K	225.32
301.46 K	225.86
303.43 K	227.02
305.4 K	226.03
307.36 K	230.37
309.31 K	235.18
311.27 K	235.45
313.22 K	236.03
315.16 K	234.76
317.1 K	236.03
319.02 K	238.01
320.95 K	239.81
322.87 K	240.52
324.78 K	243.51
326.69 K	246.23
328.59 K	244.95
330.48 K	246.48
332.37 K	249.83
334.35 K	249.15
336.32 K	251.01
338.27 K	250.4
340.28 K	254.4
342.23 K	256.8
344.09 K	255.82
345.86 K	260.16
347.69 K	257.32
349.6 K	262.66
351.56 K	261.97
353.54 K	259.52
355.49 K	263.89
357.41 K	266.15
359.38 K	268.15
361.39 K	270.9
363.37 K	269.56
365.32 K	267.19
367.26 K	270.08
369.16 K	275.79
371.1 K	275.4
373.06 K	275.42
375 K	277.14
376.96 K	279.35
378.97 K	280.38
380.96 K	281.24
383.24 K	283.27
385.55 K	285.76
387.47 K	284.6
389.43 K	285.05
391.54 K	286.7
393.53 K	288.42
395.46 K	290.84

Conditions	Molar enthalpy of transition or fusion [kcal/mol]	Normal melting temperature [°C]
[2]	6.78	–
[3]	–	217.30
